Series [1] concerns H3 histone acetylation in 697 cell line. The series can be described thus: In vitro H3 histone acetylation in 697 cell line. Type of series: cell-based. The note with it: 16 h, read-out: Acetylation of H3 histone (fold increase of acetylated H3/total H3 towards control); for fold induction at 1 µM: conc 1000 nM; for fold induction at 0.111 µM: conc 111 nM; for fold induction at 0.333 µM: conc 333 nM. How it is done:
(§1) The in vitro α-tubulin and H3 histone acetylation determination was evaluated on B 697 […] cell line.
(§2) The test molecules were diluted from 20 mM stock solution in DMSO with RPMI 10% FCS+0.01% DMSO medium at 20× concentration compared to the final concentration, added to the cells (15×10^6 cells in a total volume of 30 ml in RPMI medium 10% FCS+0.01% DMSO) to obtain the final concentrations of 1000, 333, 111 and 37 nM and incubated at 37° C., 5% CO2 for 16 hours.
The remaining cells (10×10^6) were treated by acid extraction of histones (Kazuhiro et al., PNAS (2002), 99 (13) 8921-8926). Cells were centrifuged 5 min at 1100 rpm at 4° C. and washed once in 0.9% NaCl. The resulting pellet was lysed with […] (10 mM Tris.HCl, pH 6.5/50 mM sodium bisulphite, 1% Triton X-100/10 mM MgCl2/8.6% saccharose containing the protease inhibitor mixture (Roche)) for 20 min at 4° C. The resulting nucleus pellet was repeatedly washed in buffer until supernatant clarification (centrifuged at 7,500×g, 5 minutes after each wash) and finally washed in nucleus buffer (10 mM Tris.HCl/13 mm EDTA, pH 7, 4) and resuspended in 250 μl of 0.2 M HCl/H2SO4. Histone proteins were extracted in an acidic environment by incubating overnight at 4° C. under gentle shaking. After centrifugation at 14,000 rpm at 4° C. for 10 minutes, 1250 μl of cold acetone was added to the supernatant and incubated overnight at −20° C., resulting in the precipitation of histone proteins. The pellet obtained after centrifugation for 10 minutes at 14000 rpm and 4° C. was washed with cold acetone, evaporated to dryness and resuspended in 50 μl distilled water. The protein content determination of both total and histone extracts was carried out by a colorimetric assay using a BCA Protein Assay Kit (Pierce cat: 23227).
H3 histone acetylation and total H3 amount were quantified by commercial ELISA assays PathScan acetylated histone H3 Sandwich Elisa kit, cat #7232C and PathScan total histone H3 Sandwich Elisa Kit, cat #7253C Cell Signaling) according to supplier reported method and by detecting absorbance at 450 nm wavelength using Multiskan Spectrum. ELISA tests were performed by analysing 0.250 μg and 0.500 μg of histone extract of each sample. The degree of acetylation was calculated by dividing H3 histone absorbance by histone total absorbance.
(§3) Test results of tubulin and H3 histone acetylation, expressed as fold increase of ratio of acetylated α-tubulin/total α-tubulin and H3Ac/H3Tot, respectively, of each sample relative to the control sample (untreated) are summarized in Tables 6 and 6′.

The subject of series [2] is α-tubulin acetylation in 697 cell line. Description: In vitro α-tubulin acetylation in 697 cell line. Type of series: cell-based. The note with it: 16 hours, read-out: Tubulin acetylation (ratio of acetylated tubulin and total tubulin towards control); for fold induction at 0.037 µM: Conc 37 nM; for fold induction at 0.111 µM: Conc 111 nM; for fold induction at 0.333 µM: Conc 333 nM; for fold induction at 1 µM: Conc 1000 nM. How it is done:
as §1, §2
At the end of the incubation period, 5×10^6 cells were taken from each sample, centrifuged for 5 minutes at 1100 rpm and washed in 0.9% NaCl at 4° C. The resulting pellet was lysed by treating at 4° C. for 30 minutes with 150 μl of Complete Lysis-M (Roche, cat-04719956051) containing protease inhibitors and phosphatase (Complete Easy Pack proteinase inhibitor cocktail tablets cat: 04693116001, Phostop easypack phosphatase inhibitor cocktails, cat: 01906837001—Roche), then centrifuged 10 minutes at 14,000 rpm (20817×g). 0.150 μg of supernatant (total protein extract) were diluted in 100 μl of 1×PBS and immobilized in Maxisorp F96 NUN-IMMUNO Plate (Nunc cat #5442404) at room temperature overnight. Plates were washed twice with Wash Buffer (PBS1X+0.005% tween 20) and saturated for 1 hour at room temperature with 300 μL of 1×PBS containing 10 FCS. After washing with buffer (1×PBS containing 0.005% tween), the plates were incubated for two hours at room temperature in the presence of anti-acetylated-α-tubulin antibody (Monoclonal Anti-acetylated-tubulin clone 6-11B-1, mouse ascites fluid, cat #T6793 Sigma, 100 μl diluted 1:1000 in 1×PBS containing 10% FCS) or with total anti-α-tubulin antibody (Monoclonal Anti alpha-tubulin produced in mouse, cat #T6074 Sigma). After washing, 100 μl per well of TMB substrate kit was added for 10 minutes at room temperature in the dark. The reaction was stopped by adding 50 μl of 2N H2SO4. The plates were read at Multiskan Spectrum spectrophotometer at a wavelength of 450 nm.
The degree of acetylation was calculated by dividing the absorbance obtained for acetylated α-tubulin by the absorbance of total α-tubulin.
as §3

A short description of series [3]: Pharmacokinetics after single intravenous and oral administration to the mouse. The note with it: plasma.
Protocol: Plasma levels and main pharmacokinetic parameters of test compounds were evaluated after single intravenous and oral administration to the mouse.
The formulations were prepared in a mixture of DMSO/PEG400/H2O. Blood was collected at the following sampling times: 5, 10, 15, 30 minutes, 1, 2, 4 and 6 hours after administration. Plasma samples (100 μL) were deproteinized by addition of 1% formic acid in ACN, then vortex mixed and centrifuged. For each sample, an aliquot of the supernatant was collected and diluted with water, filtered with 0.45 μm regenerated cellulose filter and analysed by LC-MS/MS. Plasma levels of the test compounds were calculated on a calibration curve prepared in the range 0.5-200 ng/mL.
Pharmacokinetic parameters were calculated on the mean plasma concentration curve using the software Kinetica™ v.

These results are taken from US11351178B2, “Selective HDAC6 inhibitors” (ITALFARMACO S.P.A., priority 2017, dated 2022).

`Cn1c(Sc2c(F)cc(C(=O)NO)cc2F)nnc1-c1cccnn1` [comp. 179, 3,5-difluoro-4-[(4-methyl-5-pyridazin-3-yl-1,2,4-triazol-3-yl)sulfanyl]benzenecarbohydroxamic acid]: the fold induction at 1 µM in series [1] amounted to 1. Moreover, in series [2], the fold induction at 0.037 µM is 2, the fold induction at 0.111 µM was found to be 7, the fold induction at 0.333 µM was 6 and the fold induction at 1 µM was 14.

Regarding `Cn1c(Sc2c(F)cc(C(=O)NO)cc2F)nnc1-c1cccc(CN2CCCCCC2)c1` [comp. 167, 4-[[5-[3-(azepan-1-ylmethyl)phenyl]-4-methyl-1,2,4-triazol-3-yl]sulfanyl]-3,5-difluoro-benzenecarbohydroxamic acid], in series [1], the fold induction at 0.111 µM came to 1, the fold induction at 0.333 µM amounted to 1 and the fold induction at 1 µM worked out at 2. Besides, in series [2], the fold induction at 0.037 µM is 2, the fold induction at 0.111 µM worked out at 3, the fold induction at 0.333 µM came to 9 and the fold induction at 1 µM came to 13.

With `Cn1c(Sc2c(F)cc(C(=O)NO)cc2F)nnc1-c1ccc(CN2CCCCCC2)cc1` [comp. 168, 4-[[5-[4-(azepan-1-ylmethyl)phenyl]-4-methyl-1,2,4-triazol-3-yl]sulfanyl]-3,5-difluoro-benzenecarbohydroxamic acid], in series [1], the fold induction at 0.111 µM was 1, the fold induction at 0.333 µM came out at 1 and the fold induction at 1 µM worked out at 2. Besides, in series [2], the fold induction at 0.037 µM stood at 3, the fold induction at 0.111 µM is 11, the fold induction at 0.333 µM stood at 19 and the fold induction at 1 µM stood at 16.

As to `O=C(NO)c1cc(F)c(Cc2nnc(-c3ccncc3)s2)c(F)c1` [compound 195, 3,5-difluoro-4-[[5-(4-pyridyl)-1,3,4-thiadiazol-2-yl]methyl]benzenecarbohydroxamic acid], in series [1], the fold induction at 0.111 µM was 1, the fold induction at 0.333 µM is 1 and the fold induction at 1 µM turned out to be 1. In series [2], the fold induction at 0.037 µM was found to be 6, the fold induction at 0.111 µM was 11, the fold induction at 0.333 µM worked out at 10 and the fold induction at 1 µM was found to be 14.

For the compound `O=C(NO)c1cc(F)c(Cn2nnnc2-c2ncccn2)c(F)c1` [comp. 125, 3,5-difluoro-4-[(5-pyrimidin-2-yltetrazol-1-yl)methyl]benzenecarbohydroxamic acid], in series [1], the fold induction at 0.111 µM came out at 1, the fold induction at 0.333 µM came out at 1 and the fold induction at 1 µM was 1. In addition, in series [2], the fold induction at 0.037 µM was determined as 1, the fold induction at 0.111 µM came out at 3, the fold induction at 0.333 µM was 6 and the fold induction at 1 µM was found to be 14.

`Nc1ccc(-c2nnn(Cc3c(F)cc(C(=O)NO)cc3F)n2)cc1` [comp. 171, 4-[[5-(4-aminophenyl)tetrazol-2-yl]methyl]-3,5-difluoro-benzenecarbohydroxamic acid]: the fold induction at 1 µM in series [1] amounted to 3. Further, in series [2], the fold induction at 0.037 µM stood at 10, the fold induction at 0.111 µM came out at 19, the fold induction at 0.333 µM is 20 and the fold induction at 1 µM came to 22.

As usually defined, the AUC is concentration integrated over time. A word on the half-life: it is how long it takes for the measured level to halve. A low value points to fast loss. As a reminder, the Tmax is the time at which the peak concentration occurs. By bioavailability is commonly meant the share of a dose that reaches the circulation, judged against a reference dose that is usually intravenous. The low end stands for poor availability, the high end for good availability. In series [3] (iv, 1.3 mg/kg), `Cn1c(Sc2c(F)cc(C(=O)NO)cc2F)nnc1-c1cccs1` [comp. 17, 3,5-difluoro-N-hydroxy-4-((4-methyl-5-(thiophen-2-yl)-4H-1,2,4-triazol-3-yl)thio)benzamide] gave an AUC of 114 ng·h/mL, a C0 of 727 ng/mL, a Vd of 16.8 L/kg and a clearance of 190 mL/min/kg. In series [3] (iv, 1.3 mg/kg), this compound had a half-life of 60 min. In series [3] (po, […]), the Tmax was 4.8 min and the bioavailability worked out at 18.4%.

Turning to `O=C(NO)c1cc(F)c(Cn2nnc(-c3ccco3)n2)c(F)c1` [comp. 19, 3,5-difluoro-4-((5-(furan-2-yl)-2H-tetrazol-2-yl)methyl)-N-hydroxybenzamide], in series [1], the fold induction at 0.111 µM was 1, the fold induction at 0.333 µM was 2 and the fold induction at 1 µM came out at 2. Besides, in series [2], the fold induction at 0.037 µM amounted to 7, the fold induction at 0.111 µM worked out at 15, the fold induction at 0.333 µM was determined as 21 and the fold induction at 1 µM stood at 17.

As for `O=C(NO)c1cc(F)c(Cn2nnnc2-c2cccs2)c(F)c1` [comp. 15, 3,5-difluoro-N-hydroxy-4-((5-(thiophen-2-yl)-1H-tetrazol-1-yl)methyl)benzamide], in series [1], the fold induction at 0.111 µM was 1, the fold induction at 0.333 µM was found to be 1 and the fold induction at 1 µM was 1. In series [2], the fold induction at 0.037 µM came out at 1, the fold induction at 0.111 µM was 3, the fold induction at 0.333 µM is 5 and the fold induction at 1 µM was 12.

Consider `Cn1c(Sc2c(F)cc(C(=O)NO)cc2F)nnc1-c1ncccc1F` [comp. 180, 3,5-difluoro-4-[[5-(3-fluoro-2-pyridyl)-4-methyl-1,2,4-triazol-3-yl]sulfanyl]benzenecarbohydroxamic acid], for which the fold induction at 1 µM in series [1] is 1. Besides, in series [2], the fold induction at 0.037 µM amounted to 2, the fold induction at 0.111 µM came to 7, the fold induction at 0.333 µM was 15 and the fold induction at 1 µM worked out at 19.
